Measurements from ChEMBL document CHEMBL3875189, “A benzo[b]thiophene-based selective type 4 S1P receptor agonist” (Bioorg Med Chem Lett, 2017).
The source made the active and inactive calls. The rule behind the calls is not given here.

How the values were obtained:
[1] = target: Sphingosine 1-phosphate receptor 3 (Homo sapiens, UniProt Q99500); assay: Agonist activity at recombinant human S1PR3 expressed in CHO cell membranes assessed as [35S]GTP-gammaS binding measured after 1.5 hrs by TopCount scintillation counting method
Chain of Sphingosine 1-phosphate receptor 3 (Q99500 whole entry): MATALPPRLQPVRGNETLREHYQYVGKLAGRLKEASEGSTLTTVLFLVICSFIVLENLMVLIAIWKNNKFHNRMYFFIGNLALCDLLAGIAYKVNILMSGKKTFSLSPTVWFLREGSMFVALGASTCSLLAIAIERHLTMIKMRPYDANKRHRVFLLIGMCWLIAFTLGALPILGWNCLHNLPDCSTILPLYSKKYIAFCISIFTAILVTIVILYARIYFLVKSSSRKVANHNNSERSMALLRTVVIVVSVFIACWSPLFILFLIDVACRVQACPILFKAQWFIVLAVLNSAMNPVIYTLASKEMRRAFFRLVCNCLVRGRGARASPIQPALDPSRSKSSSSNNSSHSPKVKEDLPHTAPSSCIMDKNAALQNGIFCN

[2] = target: T1, Sphingosine 1-phosphate receptor 4 (Homo sapiens) (UniProt O95977); assay: Activation of human S1PR4 expressed in CHO cells assessed as ERK1/2 phosphorylation at 100 nM treated under serum-free condition post 1 day serum starvation measured after 5 mins by Western blot analysis; assay type: cell-based
T1 sequence (whole entry): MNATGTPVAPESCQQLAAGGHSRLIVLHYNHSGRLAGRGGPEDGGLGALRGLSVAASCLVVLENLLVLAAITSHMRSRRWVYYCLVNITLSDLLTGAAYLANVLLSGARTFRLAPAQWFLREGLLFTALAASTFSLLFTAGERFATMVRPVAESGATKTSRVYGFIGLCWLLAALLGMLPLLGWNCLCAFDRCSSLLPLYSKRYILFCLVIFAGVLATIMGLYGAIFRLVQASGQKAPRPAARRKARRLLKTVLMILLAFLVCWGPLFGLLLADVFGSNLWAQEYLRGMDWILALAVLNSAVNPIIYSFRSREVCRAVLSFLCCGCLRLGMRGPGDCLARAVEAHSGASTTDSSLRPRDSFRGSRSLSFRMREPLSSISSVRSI

[3] = target: T2, Sphingosine 1-phosphate receptor 4 (Homo sapiens, UniProt O95977); assay: Activation of human S1PR4 expressed in CHO cells assessed as suppression of forskolin-induced intracellular cAMP level measured after 15 mins by ELISA; assay type: functional, cell-based
T2 sequence (O95977 whole entry): T1 sequence (whole entry)

[4] = target: T3, Sphingosine 1-phosphate receptor 5 (Homo sapiens, UniProt Q9H228); assay: Agonist activity at recombinant human S1PR5 expressed in CHO cell membranes assessed as [35S]GTP-gammaS binding measured after 1.5 hrs by TopCount scintillation counting method relative to S1P
T3 sequence (Q9H228 whole entry): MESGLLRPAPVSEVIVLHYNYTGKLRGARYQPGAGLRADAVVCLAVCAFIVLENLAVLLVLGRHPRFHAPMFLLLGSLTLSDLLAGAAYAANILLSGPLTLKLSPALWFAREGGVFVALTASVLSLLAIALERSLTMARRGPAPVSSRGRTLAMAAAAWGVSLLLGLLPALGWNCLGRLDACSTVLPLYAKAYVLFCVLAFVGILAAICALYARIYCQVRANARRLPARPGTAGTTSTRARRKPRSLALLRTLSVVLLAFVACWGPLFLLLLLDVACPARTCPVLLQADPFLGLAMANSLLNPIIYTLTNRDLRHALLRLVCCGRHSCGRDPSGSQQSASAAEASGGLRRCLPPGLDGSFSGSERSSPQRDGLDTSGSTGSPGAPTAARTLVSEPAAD

[5] = target: T2, Sphingosine 1-phosphate receptor 4; assay: Agonist activity at recombinant human S1PR4 expressed in CHO cell membranes assessed as [35S]GTP-gammaS binding measured after 1.5 hrs by TopCount scintillation counting method
[6] = target: T1, Sphingosine 1-phosphate receptor 4 (Homo sapiens); assay: Activation of human S1PR4 expressed in CHO cells assessed as suppression of forskolin-induced intracellular cAMP level at 1 to 10 uM measured after 15 mins by ELISA; assay type: functional, cell-based
[7] = target: Sphingosine 1-phosphate receptor 1 (Homo sapiens, UniProt P21453); assay: Agonist activity at recombinant human S1PR1 expressed in CHO cell membranes assessed as [35S]GTP-gammaS binding measured after 1.5 hrs by TopCount scintillation counting method
Chain of Sphingosine 1-phosphate receptor 1 (P21453 whole entry): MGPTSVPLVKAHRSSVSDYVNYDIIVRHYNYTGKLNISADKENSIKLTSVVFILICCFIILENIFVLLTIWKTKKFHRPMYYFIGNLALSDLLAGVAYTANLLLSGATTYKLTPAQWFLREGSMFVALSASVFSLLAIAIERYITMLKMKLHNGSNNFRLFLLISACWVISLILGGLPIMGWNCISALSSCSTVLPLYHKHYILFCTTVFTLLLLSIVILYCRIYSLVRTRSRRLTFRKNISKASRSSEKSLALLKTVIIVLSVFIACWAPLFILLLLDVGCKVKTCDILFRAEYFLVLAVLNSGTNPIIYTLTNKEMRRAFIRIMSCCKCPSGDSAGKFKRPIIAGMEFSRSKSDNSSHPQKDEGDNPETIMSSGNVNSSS

[8] = target: T3, Sphingosine 1-phosphate receptor 5; assay: Agonist activity at recombinant human S1PR5 expressed in CHO cell membranes assessed as [35S]GTP-gammaS binding measured after 1.5 hrs by TopCount scintillation counting method
[9] = target: Sphingosine 1-phosphate receptor 2 (Homo sapiens, UniProt O95136); assay: Agonist activity at recombinant human S1PR2 expressed in CHO cell membranes assessed as [35S]GTP-gammaS binding measured after 1.5 hrs by TopCount scintillation counting method
Chain of Sphingosine 1-phosphate receptor 2 (O95136 whole entry): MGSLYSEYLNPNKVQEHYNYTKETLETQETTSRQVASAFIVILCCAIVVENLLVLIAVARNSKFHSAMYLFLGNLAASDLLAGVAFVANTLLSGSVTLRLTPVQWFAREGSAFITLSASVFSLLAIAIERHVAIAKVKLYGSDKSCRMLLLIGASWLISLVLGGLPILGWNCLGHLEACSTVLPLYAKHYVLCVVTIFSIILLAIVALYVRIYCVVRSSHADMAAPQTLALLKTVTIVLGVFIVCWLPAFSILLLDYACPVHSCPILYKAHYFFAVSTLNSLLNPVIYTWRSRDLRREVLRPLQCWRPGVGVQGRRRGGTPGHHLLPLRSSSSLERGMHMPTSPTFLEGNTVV

[10] = target: T1, Sphingosine 1-phosphate receptor 4 (Homo sapiens); assay: Activation of human S1PR4 expressed in CHO cells assessed as ERK1/2 phosphorylation at 10 uM treated under serum-free condition post 1 day serum starvation measured after 5 mins by Western blot analysis; assay type: cell-based

EC50 [1]: > 100000 nM | Activity [2]: Active | EC50 [3]: 154 nM | Efficacy [4]: 24% | EC50 [5]: 200 nM | Activity [6]: Active | EC50 [7]: > 100000 nM | EC50 [8]: 370 nM | EC50 [9]: > 100000 nM | Activity [10]: Active
SMILES: O=C(O)CCCNCc1cc2cccc(-c3ccc4ccccc4c3)c2s1
